Source: patent publication US20250214960A1, “COMPOUNDS HAVING ACTIVITY OF DEGRADING GSPT1 AND APPLICATION THEREOF” (SHANGHAI MEIZER PHARMACEUTICALS CO., LTD., priority 2021, published 2025)
Like-named read-outs stand apart in the source and are kept apart here.

Legend:
[1] = test system: MV-4-11 subcutaneous transplant tumor; experiment: In vivo efficacy in MV-4-11 subcutaneous transplant tumors; design: species or system SCID mice; conditions: tumor volume on the 27th day
Protocol: Test Example 4: Compound's In Vivo Efficacy in MV-4-11 Subcutaneous Transplant Tumors Experimental method: Human acute monocytic leukemia cell line MV-4-11 was used to construct a subcutaneous transplant tumor model in SCID mice. Grouping: solvent group, reference compound (IV: 2 mg/kg, Day 0-12; IP: 20 mg/kg, Day 13-26) group, 5-17 and 5-22 (IV: 0.5 mg/kg, Day 0-12; IP: 10 mg/kg, Day 13-26), with 5 animals in each group, once a day. The tumor volume on the 27th day was measured and the tumor inhibition rate was calculated. Tumor inhibition rate (%)=[(tumor volume in solvent group−tumor volume in drug group)/tumor volume in solvent group]×100%

[2] = test system: HNT-34 cells; experiment: CTG method, inhibition of HNT-34 cell proliferation; assay type: cell-based; conditions: HNT-34, 72 hours; read-out: Cellular proliferation inhibition IC50
Protocol: (§1) Test Example 2: CTG Method for Detecting the Inhibitory Effect of Compounds of Formula on the Proliferation of HNT 34 or HL-60 Cells
(§2) HNT-34 or HL-60 cells were taken and cultured in RPMI1640 medium containing 20% fetal bovine serum. The cells were inoculated on a 96 well plate, with 1×10^4 cells per well, and incubated at 37° C. in a […] incubator. After adding the test compound, it was incubated for 72 hours. Then an appropriate amount of CTG reagent was added, the luminescence value was measured, and the inhibition rate was calculated.

[3] = molecular target: T1, GSPT1 protein (Homo sapiens, UniProt P15170+Q96SW2); experiment: Western blot detection of degradation activity of GSPT1 protein in Jeko-1 cells; assay type: cell-based; conditions: JeKo-1, 24 h, read-out: GSPT1 degradation rate (%)
T1 construct: endogenous in cells; host or cells: Jeko-1
Summary of the method: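 Jeko-1 cells in RPMI1640 with 20% FBS treated with compound or DMSO for 24 h at 37° C. GSPT1 detected in lysates by Western blot with GAPDH as internal reference. Band intensities quantified by gray-level analysis to calculate GSPT1 degradation rate.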

[4] = test system: HL-60 cells; experiment: CTG method, inhibition of HL-60 cell proliferation; assay type: cell-based; conditions: Homo sapiens; HL-60, 72 hours; read-out: Cellular proliferation inhibition IC50
Protocol: as §1, §2

[5] = test system: Jeko-1 cells; experiment: CCK8 method, inhibition of Jeko-1 cell proliferation; assay type: cell-based; conditions: Homo sapiens; Jeko-1, 72 hours; read-out: Cellular proliferation inhibition IC50
Protocol: Test Example 3: CCK8 Method for Detecting Inhibition of Jeko-1 Cell Proliferation by Compound of Formula
Cell culture: The Jeko-1 cell line (human lymphoma cells) was cultured in RPMI-1640 complete medium containing […] and 1% penicillin streptomycin, and incubated in an incubator at 37° C., 5% CO2, and saturated humidity.
Cell laying: Jeko-1 cells in logarithmic growth phase was taken, centrifuged, and an appropriate amount of complete culture medium was added to obtain a single-cell suspension, a hemocytometer was used for cell counting, and a cell suspension of 1.5×10^5 cells/mL was prepared, the cells were inoculated into a 96 well culture plate at a rate of 100 μL cell suspension per well and incubated in a CO2 cell incubator for 24 hours.
CCK-8 detection: 72 hours after administration, 10% CCK-8 solution was added to each well, placed in a CO2 cell culture incubator, and incubated for 1-4 hours. The absorbance of each well was measured using a microplate reader at 450 nm.
Calculation of cellular proliferation inhibition rate:
Cellular proliferation inhibition rate (%)=[(Ac−As)/(Ac−Ab)]×100% • As: absorbance in experimental wells (including cells, culture medium, CCK-8 solution, and drug solution) • Ac: absorbance in control wells (including cells, culture medium, CCK-8 solution, without drugs) • Ab: absorbance in blank wells (including culture medium, CCK-8 solution, without cells or drugs)

[6] = IV 0.5 mg/kg Day 0-12, IP 10 mg/kg Day 13-26, once a day

T1 sequence (P15170 whole entry): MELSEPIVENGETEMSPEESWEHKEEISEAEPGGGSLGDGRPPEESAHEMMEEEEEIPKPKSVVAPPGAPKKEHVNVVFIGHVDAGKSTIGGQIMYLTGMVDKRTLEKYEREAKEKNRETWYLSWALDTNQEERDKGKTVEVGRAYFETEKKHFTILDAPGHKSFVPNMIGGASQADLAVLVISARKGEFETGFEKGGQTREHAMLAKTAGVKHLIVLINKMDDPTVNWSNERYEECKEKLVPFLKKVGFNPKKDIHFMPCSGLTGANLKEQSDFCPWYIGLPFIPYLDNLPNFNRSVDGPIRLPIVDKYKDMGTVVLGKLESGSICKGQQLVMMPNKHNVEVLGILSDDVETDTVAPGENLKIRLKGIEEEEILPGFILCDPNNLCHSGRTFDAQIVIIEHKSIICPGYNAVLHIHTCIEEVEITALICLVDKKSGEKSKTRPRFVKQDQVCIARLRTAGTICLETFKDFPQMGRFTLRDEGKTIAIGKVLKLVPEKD
T1 sequence (Q96SW2 whole entry): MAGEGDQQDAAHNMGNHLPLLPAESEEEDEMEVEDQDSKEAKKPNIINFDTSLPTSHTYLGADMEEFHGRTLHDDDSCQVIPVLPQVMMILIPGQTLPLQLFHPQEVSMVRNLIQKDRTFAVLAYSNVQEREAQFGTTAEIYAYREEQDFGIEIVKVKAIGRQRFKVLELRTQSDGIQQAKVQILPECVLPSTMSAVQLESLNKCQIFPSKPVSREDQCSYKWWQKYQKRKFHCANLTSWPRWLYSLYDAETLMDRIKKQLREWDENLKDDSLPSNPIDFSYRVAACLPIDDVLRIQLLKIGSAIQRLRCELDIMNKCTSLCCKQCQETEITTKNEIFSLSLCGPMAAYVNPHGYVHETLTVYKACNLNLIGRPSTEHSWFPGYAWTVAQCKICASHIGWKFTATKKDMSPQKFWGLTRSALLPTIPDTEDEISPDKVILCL
T1 sequence (Q16531 whole entry partner): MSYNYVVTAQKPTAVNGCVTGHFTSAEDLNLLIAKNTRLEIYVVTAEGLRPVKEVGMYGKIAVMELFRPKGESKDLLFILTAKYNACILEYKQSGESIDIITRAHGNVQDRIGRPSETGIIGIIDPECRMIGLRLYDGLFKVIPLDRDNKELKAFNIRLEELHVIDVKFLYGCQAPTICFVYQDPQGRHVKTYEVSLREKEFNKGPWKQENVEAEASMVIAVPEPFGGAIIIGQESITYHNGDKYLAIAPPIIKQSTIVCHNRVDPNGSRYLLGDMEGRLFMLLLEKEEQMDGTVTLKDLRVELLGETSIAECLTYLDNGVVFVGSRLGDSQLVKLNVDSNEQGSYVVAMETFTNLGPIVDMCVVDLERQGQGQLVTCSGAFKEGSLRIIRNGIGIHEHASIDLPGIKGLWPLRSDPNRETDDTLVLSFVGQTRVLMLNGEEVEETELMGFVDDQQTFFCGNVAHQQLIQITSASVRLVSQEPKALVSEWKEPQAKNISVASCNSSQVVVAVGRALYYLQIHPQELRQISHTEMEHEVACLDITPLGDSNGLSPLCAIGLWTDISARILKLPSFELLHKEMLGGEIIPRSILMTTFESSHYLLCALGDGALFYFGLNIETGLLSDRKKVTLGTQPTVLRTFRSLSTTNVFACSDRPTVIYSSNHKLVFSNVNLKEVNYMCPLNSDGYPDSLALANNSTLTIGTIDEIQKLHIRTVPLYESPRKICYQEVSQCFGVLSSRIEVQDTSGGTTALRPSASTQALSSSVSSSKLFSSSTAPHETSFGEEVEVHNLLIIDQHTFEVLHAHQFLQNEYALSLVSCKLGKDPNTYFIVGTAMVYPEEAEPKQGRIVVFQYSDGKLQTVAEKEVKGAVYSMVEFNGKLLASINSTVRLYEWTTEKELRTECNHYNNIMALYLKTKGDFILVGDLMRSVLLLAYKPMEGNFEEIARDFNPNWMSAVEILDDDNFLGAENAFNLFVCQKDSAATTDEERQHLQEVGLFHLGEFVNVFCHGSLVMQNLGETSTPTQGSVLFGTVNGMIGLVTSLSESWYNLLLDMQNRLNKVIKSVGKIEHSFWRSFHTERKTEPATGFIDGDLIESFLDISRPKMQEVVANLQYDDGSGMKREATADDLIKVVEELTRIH

inhibition at 0.1 µM ([3]; 100 nM, Jeko-1 cells, 24 hours) [%]	inhibition at 10 µM ([3]; 10 μM, Jeko-1 cells, 24 hours) [%]	SMILES	Tumor inhibition rate (%) ([1]; IV 2 mg/kg Day 0-12, IP 20 mg/kg Day 13-26, once a day)	IC50 [2] [nM]	IC50 [4] [nM]	IC50 [5] [nM]	Tumor inhibition rate (%) [1, 6] [%]	inhibition at 0.1 µM [3] [%]	inhibition at 10 µM [3] [%]
		O=C1CCC(N2Cc3cc(CNC(=O)C(F)(F)c4ccc(Cl)cc4)ccc3C2=O)C(=O)N1 (stereo not shown) [Reference compound, reference compound]	28.3						
94.2	95.6	CC(C)(C)OC(=O)N[C@H](C(=O)NCc1ccc2c(c1)CN(C1CCC(=O)NC1=O)C2=O)c1ccccc1Cl (stereo partly drawn) [Compound 5-17, Tert butyl ((1S)-1-(2-chlorophenyl)-2-((2-(2,6-dioxopyridin-3-yl)-1-oxoisoidoline-5-yl)methyl)amino)-2-oxoethyl) carbamate]		3.2	4.2	0.1	99.6		
		CC(C)OC(=O)N[C@H](Cc1ccccc1)C(=O)NCc1ccc2c(c1)CN(C1CCC(=O)NC1=O)C2=O (stereo partly drawn) [Compound 5-22, Isopropyl ((2R)-1-((2-(2,6-dioxypiperidin-3-yl)-1-oxoisoindolin-5-yl)methyl)amino)-1-oxo-3-phenylprop-2-yl) carbamate]		21.3	18.6	0.6	99.8	77.7	95.7
